These results are taken from patent US9889182B2, “Assisted enzyme replacement therapy” (The Regents of the University of California, priority 2009, dated 2018).

Entries after “also recorded” stand apart in the source; their conditions may differ. Bounds are passed on as bounds.

One series has as its system 10T1/2 cells. The series is described as follows: FACS cellular uptake of BODIPY conjugates in 10T1/2 cells. It is filed as cell-based, mouse. On the procedure:
10T1/2 cells, an adherent non-transformed mouse fibroblast cell line, and HeLa cells, a common human cancer cell line, were purchased from ATCC and used before their 20th passage. Both cell lines were cultured in Dulbecco's modified eagle medium containing 10% fetal bovine serum at 37° C. in an 8% CO2 environment. For each experiment, cells were seeded onto 4 cm tissue culture plates (Nunc) and allowed to grow overnight to ˜80% confluency.
Compounds 1-5 identified in Table 1, below (0.5-1 μM), were added to each dish and incubated at 37° C./8% CO2 for 0.5-1 hr. Cells were then washed once in PBS, trypsinized with 500 μl ATV solution (Gibco) for 3 minutes, pelleted in a fixed angle centrifuge for 5 minutes at 5,000×G, then brought up in 1 mL PBS. Each sample was quickly (within 5 minutes) analyzed on a FACS VantageSE cell sorter (Becton-Dickinson) using the 488 nm argon/krypton laser line and a 530 nm band pass emission filter. 2,000-10,000 cells were counted per sample.

Series [1] deals with Wild-type CHO cells. The series is described as follows: Inhibition of Arg9-BODIPY binding and uptake. It counts as cell-based, Chinese hamster. The note with it: Arg9-BODIPY 0.5 μM, guanidinoneomycin 1-300 μM, 1 h, 37° C. How it is done: (§1) Inhibition Experiments—Wild-type CHO cells were grown to confluence on 6-well tissue culture plates, harvested with 10 mM EDTA (37° C., 10 min), washed with phosphate-buffered saline (PBS), and incubated in suspension with biotinylated FGF-2 (10 ng/ml) (25) in F12 medium for 1 h at 4° C. in the presence of increasing concentrations of guanidinoneomycin (100 nM to 1.8 mM). The cells were then stained with streptavidin-phycoerythrin-Cy5 (BD Biosciences) for 20 min, washed three times with PBS, and analyzed by flow cytometry. Cells were also incubated in F12 medium containing 0.5 μM Arg9-BODIPY and increasing concentrations of guanidinoneomycin (1-300 μM) for 1 h at 37° C. and analyzed by flow cytometry.

In series [2] the test system is FGF-2 binding to cell surface heparan sulfate. In words: Inhibition of biotinylated FGF-2 binding to wild-type CHO cells. Set-up: species or system Chinese hamster. How it is done:
as §1

The subject of another series is WT CHO-K1 cells. The series is described as follows: Competition of guanidinoneomycin construct uptake by model glycans. It is filed as cell-based, Chinese hamster.
Series [3] concerns Wild-type CHO cells. In words: Uptake of streptavidin-PE-Cy5 conjugates by flow cytometry, wild-type CHO cells. It is filed as cell-based, Chinese hamster.
Description: After thawing at room temperature, compounds were diluted into F12 medium to 1 μM. To this solution, streptavidin-PE-Cy5 (BD Biosciences) was added in a 1:1000 dilution to achieve a ratio of 1:3 of fluorophore to biotin. To ensure completion of the biotin-streptavidin reaction, the solution was gently mixed and allowed to incubate at room temperature, shielded from light for 30 min. Following this incubation, compounds were diluted to the desired concentration in growth medium. For experiments done at 4° C. solutions were incubated on ice for 30 min.
After washing with PBS, cells were incubated with the fluorescent-tagged guanidinoneomycin-, neomycin-, or Arg9-biotin for 1 h at 37° C. under an atmosphere of 5% CO2. Cells were washed with PBS, released with EDTA, and analyzed by flow cytometry.
In series [4] the test system is Wild-type CHO cells. In words: Live-cell uptake of fluorescent guanidinoneomycin conjugate (streptavidin-Alexa-488), microscopy. The conditions noted are these: heparin 50 μg/ml. It is filed as cell-based, Chinese hamster. How it is done:
Microscopy—Cells were cultured on Lab-Tek chambered coverglass slides (Electron Microscopy Sciences) in F12 medium. After washing with PBS, cells were incubated for 1 h in 1 ml of 60 nM guanidinoneomycin coupled to streptavidin-Alexa-488 (Molecular Probes) at 37° C. Guanidinoneomycin-A488 was prepared by incubating 1 μM guanidinoneomycinbiotin with 6 μg of streptavidin-Alexa-488 in 1 ml of medium. Hoechst 33342 (2 μg/ml; Molecular Probes) was added to cells for the last 20 min of incubation. Cells were washed three times with F12 medium before live cell imaging. Microscopic images were acquired on an Olympus IX70 DeltaVision Spectris Image Deconvolution system, equipped with a temperature and atmospherically controlled stage. Images were deconvolved (10 cycles) using SoftWoRx Explorer Suite software.

The subject of series [5] is Wild-type CHO cells. In words: Saporin delivery, CellTiter-Blue viability, wild-type CHO cells. The note with it: at concentrations up to 100 nM. How it is done:
Saporin Delivery—A conjugate of saporin and biotinylated guanidinoneomycin was prepared by mixing streptavidinylated saporin (Advanced Targeting Systems) with biotinylated compound in 1:4 ratio. […] CellTiter-Blue (Promega) was added to the medium and cells were incubated for an additional 4 h to measure viability.
On the technique in general: The colour change of resazurin is a common sign of viable cells or microbes.

For another series, the system named is MPS I fibroblasts. In words: [35S]glycosaminoglycan turnover, label-chase, MPS I fibroblasts. It is filed as cell-based, human. The conditions noted are these: enzyme 2 hours, chase 24 hours. On the procedure: To test whether internalized GUS was functionally localized in lysosomes, a label-chase format was used in which cells were incubated with ^35S-labeled sulfate for 24 hours to radiolabel the sulfated glycosaminoglycans. The medium was changed, and after 24 hours, the amount of [^35S]glycosaminoglycans that remained associated with the cells was quantitated. Normal and MPS fibroblasts were incubated in DMEM/F12 medium supplemented with 10% dialyzed fetal bovine serum in order to increase the radiospecific activity of added ^35S4. Cells were seeded in a 12-well plate, and at confluence, 50 μCi of Na[^35S]O4 (PerkinElmer) was added in 1 ml of fresh medium. After 24 hours, the cells were rinsed twice with PBS, exposed to GUS or α-iduronidase for 2 hours, rinsed twice, and then chased for 24 hours in complete growth medium. The cells were harvested with trypsin, centrifuged (500 g, 5 minutes), and washed once. The sedimented cells were then resuspended in 100 μl of RIPA buffer (Sigma) and counted by liquid scintillation spectrometry using Scintillator Ultima Gold XR (PerkinElmer).

As a reminder, the IC50 is the concentration that gives 50% inhibition. High values mean lower potency, low ones higher potency. On to `N=C(N)NC[C@@H]1O[C@H](O[C@H]2[C@@H](O)[C@H](O[C@@H]3[C@@H](O)[C@H](NC(=N)N)C[C@H](NC(=N)N)[C@H]3O[C@H]3O[C@H](CNC(=N)N)[C@@H](O)[C@H](O)[C@H]3NC(=N)N)O[C@@H]2CO)[C@H](NC(=N)N)[C@@H](O)[C@@H]1O` [guanidinoneomycin, guanidino-neomycin B], for which the “inhibition of transport of BODIPY-Cys(Arg)9 into cells” value in the series on 10T1/2 cells (competition experiment, FACS) is recorded as “effectively inhibits”. The “inhibition of fluorescent Arg9 binding and uptake” value in the series on Wild-type CHO cells [1] is reported as “incomplete; also recorded: partially block”. Also, in series [2] (biotinylated FGF-2 10 ng/ml, 1 h, 4° C.), the IC50 was roughly 20 µM.
As for `NC[C@@H]1O[C@H](O[C@H]2[C@@H](O)[C@H](O[C@@H]3[C@@H](O)[C@H](N)C[C@H](N)[C@H]3O[C@H]3O[C@H](CN)[C@@H](O)[C@H](O)[C@H]3N)O[C@@H]2CO)[C@H](N)[C@@H](O)[C@@H]1O` [neomycin, neomycin B, reference compound], in the series with 10T1/2 cells (relative to autofluorescence, BODIPY conjugates, FIG. 3 and Table 1), the “enhancement of cellular uptake upon guanidinylation” value was “approximately 20 fold”. Further, the “inhibition of FGF-2 binding” value in series [2] is listed as “did not inhibit binding”.
On to heparin [Heparin (A)], for which, in the series with WT CHO-K1 cells, the “increase of sensitivity of dimeric over monomeric construct to inhibition” value came out at 3 fold. The “inhibition of uptake of monomeric guanidinoneomycin 1” value in the series on WT CHO-K1 cells (at the tested concentrations) was “showed inhibition”. Also, the “heparin concentration blocking uptake of fluorescent guanidinoneomycin conjugate (as low as)” value with Wild-type CHO cells [3] is no less than 100 ng/mL. In the series on Wild-type CHO cells [4], the “effect of heparin in incubation medium on uptake of guanidinoneomycin-streptavidin-Alexa-488” value is “completely abolished uptake”.
On to saporin, for which the “cell toxicity” value in the series with Wild-type CHO cells [5] was “No cell toxicity”.

B1: AP-α-1-iduronidase: α-1-iduronidase treated with alkaline phosphatase (protein, UniProt P35475 28-653, looked up)
Alpha-L-iduronidase: APHLVHVDAARALWPLRRFWRSTGFCPPLPHSQADQYVLSWDQQLNLAYVGAVPHRGIKQVRTHWLLELVTTRGSTGRGLSYNFTHLDGYLDLLRENQLLPGFELMGSASGHFTDFEDKQQVFEWKDLVSSLARRYIGRYGLAHVSKWNFETWNEPDHHDFDNVSMTMQGFLNYYDACSEGLRAASPALRLGGPGDSFHTPPRSPLSWGLLRHCHDGTNFFTGEAGVRLDYISLHRKGARSSISILEQEKVVAQQIRQLFPKFADTPIYNDEADPLVGWSLPQPWRADVTYAAMVVKVIAQHQNLLLANTTSAFPYALLSNDNAFLSYHPHPFAQRTLTARFQVNNTRPPHVQLLRKPVLTAMGLLALLDEEQLWAEVSQAGTVLDSNHTVGVLASAHRPQGPADAWRAAVLIYASDDTRAHPNRSVAVTLRLRGVPPGPGLVYVTRYLDNGLCSPDGEWRRLGRPVFPTAEQFRRMRAAEDPVAAAPRPLPAGGRLTLRPALRLPSLLLVHVCARPEKPPGQVTRLRALPLTQGQLVLVWSDEHVGSKCLWTYEIQFSQDGKAYTPVSRKPSTFNLFVFSPDTGAVSGSYRVRALDYWARPGPFSDPVPYLEVPVPRGPPSPGNP
modifications: dephosphorylated by alkaline phosphatase
notes: α-1-iduronidase treated with alkaline phosphatase
For B1, the “ED50, [35S]glycosaminoglycan turnover” value in the series with MPS I fibroblasts came to 30 U.

B2: GNeo-AP-α-1-iduronidase: GNeo conjugated to AP-α-1-iduronidase (conjugate, UniProt P35475 28-653, looked up)
Alpha-L-iduronidase: APHLVHVDAARALWPLRRFWRSTGFCPPLPHSQADQYVLSWDQQLNLAYVGAVPHRGIKQVRTHWLLELVTTRGSTGRGLSYNFTHLDGYLDLLRENQLLPGFELMGSASGHFTDFEDKQQVFEWKDLVSSLARRYIGRYGLAHVSKWNFETWNEPDHHDFDNVSMTMQGFLNYYDACSEGLRAASPALRLGGPGDSFHTPPRSPLSWGLLRHCHDGTNFFTGEAGVRLDYISLHRKGARSSISILEQEKVVAQQIRQLFPKFADTPIYNDEADPLVGWSLPQPWRADVTYAAMVVKVIAQHQNLLLANTTSAFPYALLSNDNAFLSYHPHPFAQRTLTARFQVNNTRPPHVQLLRKPVLTAMGLLALLDEEQLWAEVSQAGTVLDSNHTVGVLASAHRPQGPADAWRAAVLIYASDDTRAHPNRSVAVTLRLRGVPPGPGLVYVTRYLDNGLCSPDGEWRRLGRPVFPTAEQFRRMRAAEDPVAAAPRPLPAGGRLTLRPALRLPSLLLVHVCARPEKPPGQVTRLRALPLTQGQLVLVWSDEHVGSKCLWTYEIQFSQDGKAYTPVSRKPSTFNLFVFSPDTGAVSGSYRVRALDYWARPGPFSDPVPYLEVPVPRGPPSPGNP
modifications: GNeo conjugate, dephosphorylated
notes: GNeo conjugated to AP-α-1-iduronidase
With B2, the “ED50, [35S]glycosaminoglycan turnover” value in the series with MPS I fibroblasts turned out to be 0.2 units.
